Experiments:
[1] = tested on: U87MG tumor; assay: Ex vivo biodistribution in U87MG tumor-bearing mice; conditions: 4 hour time point
Experimental: Ex vivo imaging of excised tumor and organs further confirmed the targeting specificity and activation of the probes (data not shown). At 4 hours post-injection, the mice were sacrificed and major organ tissues and tumors were harvested, and placed on black paper for ex vivo imaging. For quantitative comparison, ROIs were drawn over tumors and the other organs, and the average signal for each area was measured. The results were presented as the average scaled signal from the organs and tumors. Values were expressed as mean±s.d. for a group of three animals.
T/N ratios are illustrated in FIG. 12A. […] After whole-mouse imaging at a 4 hour time point, tumors and organs were carefully removed and the biodistribution of compounds 4 and 6 was evaluated (FIG. 12B).

[2] = tested on: MMP- and αvβ3 integrin receptor-positive U87MG tumor; assay: In vivo optical imaging of U87MG tumor-bearing mice; conditions: for fluorescent signals in the tumor over time: 0.5 nmol injected
Experimental: Female athymic nude mice were supplied from Harlan at 4 to 5 weeks of age. The U87MG tumor model was generated by subcutaneous injection of 5×10^6 cells in Matrigel (BD Biosciences, Sparks, Md.) into the right front flank of female athymic nude mice at a volume of about 80 μl. The mice were then used for optical studies when the tumor volume reached about 300 mm^3. All animal studies were conducted in accordance with the principles and procedures outlined in the Guide for the Care and Use of Laboratory Animals and were approved by the Institutional Animal Care and Use Committee of Clinical Center, NIH.
Optical imaging acquirement and analysis were done using a Maestro 2.10 in vivo imaging system (CRI). […] The molar concentration of each samples were calculated by the sample weight. At 1, 2, 3, and 4 hours post-injection, the mice were subjected to optical imaging using appropriate filters for Cy5.5 and CW800. For the inhibition experiment, MMP inhibitor was intratumorally injected into tumor bearing mice 30 minutes before the imaging agent injection. After image acquisition, spectral unmixing yielded the pseudocolor images of the pure spectrum of respective dyes. Images were normalized and analyzed using Maestro software. For quantitative comparison, regions of interest (ROI) were drawn over tumors and muscle, and the average signal ([…]) for each area was measured. Values were expressed as mean±s.d. for a group of three animals.
It should be noted that only a limited dose of dye-labeled peptide probe like compounds 5 and 7 can be injected for whole body imaging, because of its high fluorescent background from the dye. In contrast, since fluorogenic probes are strongly quenched and a majority of the probe is activated at the target site, higher doses of the imaging agents of the present invention can be injected to enhance the ratio of region-of-interest (ROI) signal of tumor to normal tissue, muscle (T/N), at very early times. After injection, in vivo optical imaging was performed for 4 hours using a small animal imaging system (Maestro 2) equipped with appropriate filters for Cy5.5 and CW800.

[3] = tested on: U87MG cells; assay: Fluorescent microscopic study of receptor specificity in fixed U87MG cells; format: cell-based, human
Experimental: The U87MG cell is known to have high αvβ3 integrin density on the cell surface. […] Next, receptor specificity of the probes in cell culture was verified by fluorescent microscopic studies. […] (data not shown).

[4] = tested on: MMP-positive SCC-7 tumor; assay: In vivo NIR fluorescence imaging of SCC-7 tumor-bearing mice; conditions: intravenous, imaging for 24 hours, compared to other MMP-Pns and MMPSense 680
Experimental: Squamous cell carcinoma SCC-7 were cultured in RPMI 1640 medium containing 10% (v/v) fetal bovine serum (Invitrogen, Carlsbad, Calif.) supplemented with penicillin (100 μg/ml) and streptomycin (100 μg/ml) at 37° C. with 5% CO2. The SCC-7 tumor model was developed by subcutaneous injection of 1×10^6 cells into the right front flank of female athymic nude mice (Harlan Laboratories, Indianapolis, Ind.). The mice were used for optical studies when the tumor volume reached about 300 mm^3. […]
Optical image acquisition and analysis were done using a Maestro 2 imaging system (Cambridge Research & Instrumentation, Inc. (CRI), Woburn, Mass.). […] Images were normalized and analyzed by using Maestro software. For quantitative comparison, the regions of interest (ROI) were drawn over tumor (T) and normal tissue (N, muscle), and the average signal (×10^6 photons×cm^−2×s^−1) for each area was measured. […]
The MMP-Pns imaging agents used in Example 2, were then used to create a video image of the activity of MMPs in vivo. […] The MMP-P12 generated strong NIR fluorescence signals as early as 20 to 30 minutes after the probe injection and enabled clear visualization of MMPs in the tumor region thereafter.

In the case of `CCN(CC)c1ccc2nc3ccc(/N=N/c4ccc(N(C)CCCC(=O)NCCCC[C@H](NC(=O)CNC(=O)[C@H](CCCNC(=N)N)NC(=O)[C@@H](NC(=O)CNC(=O)[C@H](CC(C)C)NC(=O)[C@@H]5CCCN5C(=O)CNC(=O)CCCCCN5/C(=C/C=C/C=C/C6=[N+](CC)c7ccc8c(S(=O)(=O)O)cc(S(=O)(=O)[O-])cc8c7C6(C)C)C(C)(C)c6c5ccc5c(S(=O)(=O)O)cc(S(=O)(=O)[O-])cc65)C(C)C)C(=O)NCC(=O)NCC(=O)NCCCC[C@@H]5NC(=O)[C@@H](Cc6ccc(O)cc6)NC(=O)[C@H](CC(=O)O)NC(=O)CNC(=O)[C@H](CCCNC(=N)N)NC5=O)cc4)cc3[n+](-c3ccccc3)c2c1` [compound 4], the “ex vivo biodistribution (site of activation)” value [1] was “predominantly activated in the tumors”, the “NIR fluorescence signal from the tumor with MMP inhibitor” value ([2]; MMP inhibitor intratumorally 30 minutes before probe) was “significantly reduced” and the “tumor uptake with excess unlabeled c(RGDyK)” value ([2]; c(RGDyK) 200 nmol, 30 minutes post-injection) was “effectively blocked”. For the same compound, the “brightness of NIR fluorescent images” value ([2]; from 1 hour post-injection) was “brighter NIR fluorescent images compared to compound 6” and the “visualization of MMP expression in MMP positive tumor” value ([2]; intravenous, imaging for 4 hours) was “enabled visualization of MMP expression”.
`CC[N+]1=C(/C=C/C=C/C=C2/N(CCCCCC(=O)NCC(=O)N3CCC[C@H]3C(=O)N[C@@H](CC(C)C)C(=O)NCC(=O)N[C@H](C(=O)N[C@@H](CCCNC(=N)N)C(=O)NCC(=O)N[C@@H](CCCCN)C(=O)NCC(=O)NCC(=O)NCCCC[C@@H]3NC(=O)[C@@H](Cc4ccc(O)cc4)NC(=O)[C@H](CC(=O)O)NC(=O)CNC(=O)[C@H](CCCNC(=N)N)NC3=O)C(C)C)c3ccc4c(S(=O)(=O)O)cc(S(=O)(=O)O)cc4c3C2(C)C)C(C)(C)c2c1ccc1c(S(=O)(=O)O)cc(S(=O)(=O)O)cc21` [compound 5] was tested, and the “fluorescent signals on the cell membranes” value ([3]; 30 minutes of incubation at 37° C.) was “Strong positive fluorescent signals”, the “binding with receptor blocking by excess c(RGDyK)” value ([3]; blocking dose of c(RGDyK) 10 μM) was “significantly decreased” and the “fluorescent signals in the tumor over time” value [2] was “gradually increased”.
For `CC1(C)C(/C=C/C2=C(Oc3ccc(S(=O)(=O)O)cc3)C(=C/C=C3/N(CCCCS(=O)(=O)O)c4ccc(S(=O)(=O)O)cc4C3(C)C)/CCC2)=[N+](CCCCCC(=O)NCCCC[C@@H]2NC(=O)[C@@H](Cc3ccc(O)cc3)NC(=O)[C@H](CC(=O)O)NC(=O)CNC(=O)[C@H](CCCNC(=N)N)NC2=O)c2ccc(S(=O)(=O)O)cc21` [compound 7], the “fluorescent signals in the tumor over time” value [2] was “gradually increased”.
“MMP-P4: Cy5.5-GPLGVRGK(BHQ3)GG-R, R = -NH(CH2CH2O)4H” was tested, and the “onset of activation in vivo, NIR fluorescence in tumor region” value [4] was “early onset of activation in vivo”.

Reference: US10646591B2, “Imaging agents for imaging protease activity and uses thereof” (The United States of America, as represented by the …, priority 2011, dated 2020)
